Results published in article PMC6657216, “Defining the Contribution of CYP1A1 and CYP1A2 to Drug Metabolism Using Humanized CYP1A1/1A2 and Cyp1a1/Cyp1a2 Knockout Mice” (Drug Metabolism and Disposition, 2019).
Several values for one entry are separate records, joined by “and”; a condition that tells them apart may be missing. Identical values can stand only once. Like-named read-outs stand apart in the source and are kept apart here. Marks after values point to notes of the source that are not given here.

Columns and labels:
[1] = for CYP1A2 Contribution: 5 mg/kg PO, This study; for AUCinf(obs) (% mean of C57BL/6J ± %S.D.) / CL/F(obs) (% mean of C57BL/6J ± %S.D.) / Cmax (% mean of C57BL/6J ± %S.D.) / V/F(obs) (% mean of C57BL/6J ± %S.D.) / V/F(obs): 5 mg/kg oral; for V/F(obs): mean ± S.D., n = 4
Experimental: (§2) A separate experimental group consisted of mice with conditionally deleted hepatic P450 oxidoreductase ([Henderson et al., 2003]) [hepatic reductase null (HRN) mice]. Whole blood samples from WT and hCYP1A1/1A2 mice were collected at 12, 24, and 40 minutes and 1, 2, 3, 4, 6, and 8 hours after the administration. Whole blood samples from HRN and Cyp1a1/1a2 KO mice were collected at 12, 24, and 40 minutes and 1, 3, 6, 8, 12, and 24 hours postadministration. The collected whole blood samples (10 μl) were mixed with an equal volume of heparin solution in water (15 U/ml), frozen in liquid nitrogen, and stored at −70°C. […] The supernatant was collected, and the centrifugation step was repeated.
(§3) Pharmacokinetic parameters were calculated using Phoenix WinNonlin version 6.4 (Certara, St. Louis, MO).

CYP1A2 = tested on: CYP1A2; design: method as in Culm-Merdek et al., 2005; conditions: healthy subjects; interaction with fluvoxamine; ref Culm-Merdek et al., 2005; cited from earlier work
[2] = Caffeine systemic clearance from published mouse studies; type: in vivo
[3] = cited from earlier work
in vivo = conditions: whole blood, po, 5 mg/kg
Experimental: as §2, §3

[4] = Microsomal stability in pooled human liver microsomes
Experimental: (§1) The reaction was started by addition of 200 μl of NADPH to the remaining mixture of ramelteon with microsomes, and 100-μl aliquots were taken at 1, 2, 5, 10, 15, 20, and 30 minutes after the reaction start; mixed with an equal volume of ice-cold methanol containing the internal standard; incubated on ice for at least 20 minutes; and centrifuged for 15 minutes at 16,000 rcf and +4°C on Centrifuge 5415 R (Eppendorf, Hamburg, Germany). Control incubations were carried out without the cofactor or microsomes. The concentration of ramelteon in the supernatant was measured by high-performance liquid chromatography–tandem mass spectrometry (MS/MS). Chromatographic separation was performed on a Prodigy Phenyl-3 column (5 μm, 50 × 2.0 mm; Phenomenex) using an injection volume of 10 μl and a run time of 7 minutes. Mobile phase consisted of 0.1% solutions of formic acid in water (solvent A) and acetonitrile (solvent B). For elution, a linear gradient from 20% to 60% of solvent B in 4 minutes was used, followed by 3-minute equilibration at 20% B. The multiple reaction monitoring parameters for ramelteon and tacrine were 260.28, 199.2 (precursor ion) and 204.21, 171.11 (product ion), respectively. The concentrations of ramelteon were calculated from the calibration curve.

[5] = Microsomal stability in mouse liver microsomes (WT, Cyp1a KO, hCYP1A1/1A2)
Experimental: as §1

[6] = HRN (hepatic reductase null), mouse

SMILES: Cn1c(=O)c2c(ncn2C)n(C)c1=O [caffeine]
- CYP1A2 Contribution ([1]; C57BL/6J (WT) mice, against Cyp1a KO clearance): 68%
- AUCinf(obs) (% mean of C57BL/6J ± %S.D.) ([1]; C57BL/6J mice): 100 ± 22%
- CL/F(obs) (% mean of C57BL/6J ± %S.D.) ([1]; C57BL/6J mice): 100 ± 19%
- Cmax (% mean of C57BL/6J ± %S.D.) ([1]; C57BL/6J mice): 100 ± 26%
- V/F(obs) (% mean of C57BL/6J ± %S.D.) ([1]; C57BL/6J mice): 100 ± 39%
- V/F(obs) ([1]; C57BL/6J mice): 1.253 ± 0.494 L/kg
- increase of AUC compared with WT mice ([1]; Cyp1a KO mice): ~3.1 fold
- increase of elimination half-life compared with WT ([1]; Cyp1a KO mice): ~2.5 fold
- CYP1A2 Contribution ([1]; Cyp1a KO mice): 0%
- AUCinf(obs) (% mean of C57BL/6J ± %S.D.) ([1]; Cyp1a KO mice): 309 ± 36%
- Cmax (% mean of C57BL/6J ± %S.D.) ([1]; Cyp1a KO mice): 167 ± 20%
- V/F(obs) (% mean of C57BL/6J ± %S.D.) ([1]; Cyp1a KO mice): 79 ± 15%
- CL/F(obs) (% mean of C57BL/6J ± %S.D.) ([1]; Cyp1a KO mice, 5 mg/kg): 32% and 32 ± 4%
- V/F(obs) ([1]; Cyp1a KO mice): 0.992 ± 0.188 L/kg
- increase of AUC compared with WT mice ([1]; HRN mice): ~10 fold
- increase of elimination half-life compared with WT ([1]; HRN mice): ~8.9 fold
- AUCinf(obs) (% mean of C57BL/6J ± %S.D.) ([1]; HRN mice): 1004 ± 45%
- Cmax (% mean of C57BL/6J ± %S.D.) ([1]; HRN mice): 157 ± 33%
- V/F(obs) (% mean of C57BL/6J ± %S.D.) ([1]; HRN mice): 84 ± 7%
- CL/F(obs) (% mean of C57BL/6J ± %S.D.) ([1]; HRN mice, 5 mg/kg): 9.7 ± 0.42%
- V/F(obs) ([1]; HRN mice): 1.057 ± 0.082 L/kg
- increase of AUC compared with WT mice ([1]; hCYP1A1/1A2 mice): ~1.5 fold
- CYP1A2 Contribution ([1]; hCYP1A1/1A2 mice, against Cyp1a KO clearance): 53%
- AUCinf(obs) (% mean of C57BL/6J ± %S.D.) ([1]; hCYP1A1/1A2 mice): 147 ± 32%
- Cmax (% mean of C57BL/6J ± %S.D.) ([1]; hCYP1A1/1A2 mice): 129 ± 8%
- V/F(obs) (% mean of C57BL/6J ± %S.D.) ([1]; hCYP1A1/1A2 mice): 89 ± 4%
- CL/F(obs) (% mean of C57BL/6J ± %S.D.) ([1]; hCYP1A1/1A2 mice, 5 mg/kg): 68% and 68 ± 13%
- V/F(obs) ([1]; hCYP1A1/1A2 mice): 1.111 ± 0.055 L/kg
- increase of elimination half-life compared with WT ([1]; hCYP1A1/1A2 mice, not statistically significant): ~1.4 fold
- contribution of CYP1A2 to caffeine metabolism (CYP1A2): 93%
- CYP1A2 Contribution ([2]; C57BL/6J mice, 5 mg/kg PO, against Cyp1a KO clearance, clearance from ref Li et al., 2017): 39%
- CYP1A2 Contribution ([2]; C57BL/6J mice, 5 mg/kg PO, against Cyp1a KO clearance, clearance from ref Scheer et al., 2014): 61%
- CYP1A2 Contribution ([2]; C57BL/6N mice, 2 mg/kg i.p., calculated against CYP1A2^−/− clearance, clearance from ref Buters et al., 1996): 88%
- CYP1A2 Contribution ([2]; CD-1 mice, 20 mg/kg i.p., against Cyp1a KO clearance, clearance from ref Kaplan et al., 1990): 55%
- CYP1A2 Contribution ([2]; CD-1 mice, 40 mg/kg i.p., against Cyp1a KO clearance, clearance from ref Kaplan et al., 1990): 25%
- CYP1A2 Contribution ([2]; CD-COBS mice, 1 mg/kg i.v., against Cyp1a KO clearance, clearance from ref Walton et al., 2001): 61%
- CYP1A2 Contribution ([2]; CYP1A2^−/− mice, 2 mg/kg i.p., clearance from ref Buters et al., 1996): 0%
- CYP1A2 Contribution ([2]; Swiss mice, 20 mg/kg PO, against Cyp1a KO clearance, clearance from ref Samojlik et al., 2016): 8%
- CYP1A2 Contribution ([2]; Swiss mice, 20 mg/kg i.p., against Cyp1a KO clearance, clearance from ref Samojlik et al., 2016): 28%
- Clearance ([3]; C57BL/6J mice, 5 mg/kg PO, calculated from the mean pharmacokinetic profile in Fig. 2 of the publication, ref Li et al., 2017): 472^a ml/(h*kg)
- Clearance ([3]; C57BL/6J mice, 5 mg/kg PO, ref Scheer et al., 2014): 726 mL/h/kg
- Clearance ([3]; C57BL/6N mice, 2 mg/kg i.p., ref Buters et al., 1996): 2268 mL/h/kg
- Clearance ([3]; CD-1 mice, 20 mg/kg i.p., ref Kaplan et al., 1990): 640 mL/h/kg
- Clearance ([3]; CD-1 mice, 40 mg/kg i.p., ref Kaplan et al., 1990): 380 mL/h/kg
- Clearance ([3]; CD-COBS mice, 1 mg/kg i.v., ref Walton et al., 2001): 732 mL/h/kg
- Clearance ([3]; Swiss mice, 20 mg/kg PO, calculated by dividing dose by AUCinf, ref Samojlik et al., 2016): 311^b ml/(h*kg)
- Clearance ([3]; Swiss mice, 20 mg/kg i.p., calculated by dividing dose by AUCinf, ref Samojlik et al., 2016): 398^b ml/(h*kg)
- AUC(0-inf) (in vivo; C57BL/6J, mouse): 5700 ± 1260 ng·h/mL
- CL/F (in vivo; C57BL/6J, mouse): 15.1 mL/min/kg
- Cmax (in vivo; C57BL/6J, mouse): 2380 ± 628 ng/mL
- half-life (in vivo; C57BL/6J, mouse): 0.94 ± 0.25 h
- AUC(0-inf) (in vivo; Cyp1a KO, mouse): 17700 ± 2070 ng·h/mL
- CL/F (in vivo; Cyp1a KO, mouse): 4.77 mL/min/kg
- Cmax (in vivo; Cyp1a KO, mouse): 3990 ± 472 ng/mL
- half-life (in vivo; Cyp1a KO, mouse): 2.39 ± 0.2 h
- AUC(0-inf) (in vivo; [6]): 57300 ng·h/mL
- CL/F (in vivo; [6]): 1.45 mL/min/kg
- Cmax (in vivo; [6]): 3740 ± 794 ng/mL
- half-life (in vivo; [6]): 8.4 ± 0.8 h
- AUC(0-inf) (in vivo; hCYP1A1/1A2, mouse): 8400 ± 1800 ng·h/mL
- CL/F (in vivo; hCYP1A1/1A2, mouse): 10.2 mL/min/kg
- Cmax (in vivo; hCYP1A1/1A2, mouse): 3080 ± 194 ng/mL
- half-life (in vivo; hCYP1A1/1A2, mouse): 1.3 ± 0.33 h

SMILES: CCC(=O)NCC[C@@H]1CCc2ccc3c(c21)CCO3 [ramelteon]
- in vitro clearance relative to WT [4]: ~70%
- in vitro clearance relative to WT ([5]; Cyp1a KO mouse liver microsomes): ~83%
- contribution of mouse Cyp1a2 to clearance ([5]; WT liver microsomes): 17%
- fraction metabolized by Cyp1a2 ([5]; WT mice liver microsomes, eqs. 15 and 16): ~0.17
- fraction metabolized by CYP1A2 ([5]; hCYP1A1/1A2 mice liver microsomes, eqs. 15 and 16): 0.56
- in vitro clearance relative to WT ([5]; hCYP1A1/1A2 mouse liver microsomes): ~190%
- contribution of CYP1A2 to clearance ([5]; liver microsomes of hCYP1A1/1A2 mice): 56%
